Results reported in article PMC12140300, “Development of Carbon‐11 Labeled Pyrimidine Derivatives as Novel Positron Emission Tomography (PET) Agents Enabling Brain Sigma‐1 Receptor Imaging” (Advanced Science, 2025).

Columns and labels:
Test in all cases: PDSP radioligand assay
Assay type in all cases: binding
[1] = target: T1, M5 (Homo sapiens, UniProt P08912)
T1 sequence (P08912 1-532): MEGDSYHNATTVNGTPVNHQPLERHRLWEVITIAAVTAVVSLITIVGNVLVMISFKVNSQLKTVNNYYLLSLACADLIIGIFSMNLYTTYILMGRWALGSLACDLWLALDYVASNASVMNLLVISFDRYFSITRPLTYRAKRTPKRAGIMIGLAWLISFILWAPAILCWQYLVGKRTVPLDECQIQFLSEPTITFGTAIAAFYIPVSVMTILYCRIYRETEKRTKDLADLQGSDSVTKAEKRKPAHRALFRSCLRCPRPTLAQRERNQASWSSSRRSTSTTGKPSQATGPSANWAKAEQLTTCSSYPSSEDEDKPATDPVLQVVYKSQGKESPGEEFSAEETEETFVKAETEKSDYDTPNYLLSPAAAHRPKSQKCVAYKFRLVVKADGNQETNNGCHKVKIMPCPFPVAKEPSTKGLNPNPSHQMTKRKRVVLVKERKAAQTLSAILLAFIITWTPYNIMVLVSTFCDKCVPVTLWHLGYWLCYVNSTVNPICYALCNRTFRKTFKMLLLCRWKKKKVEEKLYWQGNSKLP

[2] = target: NET (Homo sapiens, UniProt P23975)
NET, sequence (P23975 whole entry): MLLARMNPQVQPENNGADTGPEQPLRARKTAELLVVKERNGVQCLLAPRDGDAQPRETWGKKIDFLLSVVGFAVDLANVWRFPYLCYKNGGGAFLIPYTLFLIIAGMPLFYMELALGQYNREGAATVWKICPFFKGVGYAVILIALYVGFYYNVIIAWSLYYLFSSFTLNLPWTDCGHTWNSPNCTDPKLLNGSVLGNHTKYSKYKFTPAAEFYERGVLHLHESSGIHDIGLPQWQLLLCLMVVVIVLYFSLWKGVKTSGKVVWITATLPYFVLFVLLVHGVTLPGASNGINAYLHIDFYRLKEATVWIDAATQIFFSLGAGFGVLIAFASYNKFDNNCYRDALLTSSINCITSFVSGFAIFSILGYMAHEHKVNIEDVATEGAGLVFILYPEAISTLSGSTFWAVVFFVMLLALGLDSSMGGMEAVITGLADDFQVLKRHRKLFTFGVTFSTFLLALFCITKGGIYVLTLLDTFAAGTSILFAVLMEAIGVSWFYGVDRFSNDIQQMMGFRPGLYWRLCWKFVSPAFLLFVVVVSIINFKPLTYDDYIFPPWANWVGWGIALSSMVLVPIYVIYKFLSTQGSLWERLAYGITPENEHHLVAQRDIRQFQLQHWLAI

[3] = target: T2, SERT (Homo sapiens, UniProt P31645)
T2 construct: purchased NIMH Psychoactive Drug Screening Program (PDSP)
T2 sequence (P31645 whole entry): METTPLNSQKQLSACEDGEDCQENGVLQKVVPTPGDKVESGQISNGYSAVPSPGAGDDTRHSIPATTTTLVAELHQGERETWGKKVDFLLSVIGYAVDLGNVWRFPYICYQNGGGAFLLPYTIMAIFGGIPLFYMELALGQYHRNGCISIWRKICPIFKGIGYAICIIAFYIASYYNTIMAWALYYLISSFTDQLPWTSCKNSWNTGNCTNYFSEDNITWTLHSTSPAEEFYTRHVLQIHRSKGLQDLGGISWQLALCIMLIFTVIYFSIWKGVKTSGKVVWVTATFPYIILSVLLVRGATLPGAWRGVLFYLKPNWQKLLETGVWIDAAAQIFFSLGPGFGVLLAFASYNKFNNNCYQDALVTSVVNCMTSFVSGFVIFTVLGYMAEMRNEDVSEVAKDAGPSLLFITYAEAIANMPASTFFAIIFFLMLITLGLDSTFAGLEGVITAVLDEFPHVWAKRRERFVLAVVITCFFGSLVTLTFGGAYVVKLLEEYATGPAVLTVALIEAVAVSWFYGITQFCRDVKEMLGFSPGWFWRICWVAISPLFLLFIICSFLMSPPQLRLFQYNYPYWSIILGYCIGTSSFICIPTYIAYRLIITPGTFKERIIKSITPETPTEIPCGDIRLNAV

| Structure (SMILES) | Ki [1] [nM] | inhibition at 10 µM [1] [%] | inhibition at 10 µM [2] [%] | inhibition at 10 µM [3] [%] | Ki [2] [nM] |
| --- | --- | --- | --- | --- | --- |
| Cc1nc(-c2ccc(Cl)cc2)nc(OCCCN2CCN(C)CC2)c1Cl [CNY-02, 5‐chloro‐2‐(4‐chlorophenyl)‐4‐methyl‐6‐(3‐(4‐methylpiperazin‐1‐yl)propoxy)pyrimidine] | 2500 | 83.3 | 0.14 | 43 |  |
| COc1ccc(-c2nc(C)c(Cl)c(OCCCN3CCCCC3)n2)cc1 [CNY-01, 5‐chloro‐2‐(4‐methoxyphenyl)‐4‐methyl‐6‐(3‐(piperidin‐1‐yl)propoxy)pyrimidine] | > 10000 | 59.1 | 50.4 | 21.8 | 2100 |
